According to patent US9045445B2, “Glycine transporter-1 inhibitors, methods of making them, and uses thereof” (Albany Molecular Research, Inc., priority 2010, dated 2015):
pIC50: −log10 of the molar value. Structures can show the parent of a compound that is named as a salt. Where two headings read alike, the source gives them in different places.

Experiments:
[1] = molecular target: T1, glycine transporter-2 (GlyT-2) (Homo sapiens, UniProt Q9Y345); experiment: [14C]glycine uptake assay in HEK-GlyT-2 transfected cells; type: cell-based; conditions: HEK-GlyT-2 cells
T1 construct: expressed in transfected cells
T1 sequence (Q9Y345 1-797): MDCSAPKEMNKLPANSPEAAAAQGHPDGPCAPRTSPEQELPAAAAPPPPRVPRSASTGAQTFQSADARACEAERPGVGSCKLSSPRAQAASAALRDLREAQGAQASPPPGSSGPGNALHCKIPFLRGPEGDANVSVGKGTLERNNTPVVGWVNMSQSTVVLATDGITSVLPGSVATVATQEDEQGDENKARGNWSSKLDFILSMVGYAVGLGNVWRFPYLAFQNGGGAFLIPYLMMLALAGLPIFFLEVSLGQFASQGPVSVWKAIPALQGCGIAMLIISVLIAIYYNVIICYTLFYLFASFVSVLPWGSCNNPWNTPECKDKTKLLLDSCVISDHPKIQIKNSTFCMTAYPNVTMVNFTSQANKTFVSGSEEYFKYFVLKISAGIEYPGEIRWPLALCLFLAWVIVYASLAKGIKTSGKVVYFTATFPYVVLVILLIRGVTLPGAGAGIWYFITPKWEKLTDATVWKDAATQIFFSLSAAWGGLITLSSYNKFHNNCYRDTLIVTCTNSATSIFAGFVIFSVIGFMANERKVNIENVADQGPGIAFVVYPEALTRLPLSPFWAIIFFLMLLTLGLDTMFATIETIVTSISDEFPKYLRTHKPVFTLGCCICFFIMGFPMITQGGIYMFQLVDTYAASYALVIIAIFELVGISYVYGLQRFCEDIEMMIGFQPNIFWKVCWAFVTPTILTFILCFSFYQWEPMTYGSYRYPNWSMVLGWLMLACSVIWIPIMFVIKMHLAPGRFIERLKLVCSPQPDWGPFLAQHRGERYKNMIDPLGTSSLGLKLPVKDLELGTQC

[2] = tested on: cerebrospinal fluid (CSF) glycine levels; experiment: CSF-glycine assay after oral administration; type: in vivo; conditions: rats; for change in vivo at 10 mg/kg / change in vivo at 30 mg/kg / change in vivo at 100 mg/kg / change in vivo at 3 mg/kg: Rattus norvegicus, po, read-out: % CSF Glycine Increase versus Vehicle Control
Description: This study measured cerebrospinal fluid (CSF) glycine levels after oral administration of test compound. […] After the specified pretreatment time, the rats were euthanized by CO2 asphyxiation and a hypodermic needle was inserted into the cisterna magna to withdraw 50-100 μl of CSF. The CSF was diluted with deuterated-glycine as an internal standard glycine was quantified by LC/MS/MS.

[3] = molecular target: T2, glycine transporter-1 (GlyT-1) (Homo sapiens, UniProt P48067); experiment: [14C]glycine uptake assay in JAR cells endogenously expressing GlyT-1 (scintillation proximity); type: cell-based; conditions: JAR cells, [14C]glycine 5 μM, 3 hour incubation; read-out: GlyT-1 IC50
T2 construct: JAR cells (ATCC#HTB-144), which endogenously express GlyT-1; host or cells: JAR human choriocarcinoma cells
T2 sequence (P48067 1-706): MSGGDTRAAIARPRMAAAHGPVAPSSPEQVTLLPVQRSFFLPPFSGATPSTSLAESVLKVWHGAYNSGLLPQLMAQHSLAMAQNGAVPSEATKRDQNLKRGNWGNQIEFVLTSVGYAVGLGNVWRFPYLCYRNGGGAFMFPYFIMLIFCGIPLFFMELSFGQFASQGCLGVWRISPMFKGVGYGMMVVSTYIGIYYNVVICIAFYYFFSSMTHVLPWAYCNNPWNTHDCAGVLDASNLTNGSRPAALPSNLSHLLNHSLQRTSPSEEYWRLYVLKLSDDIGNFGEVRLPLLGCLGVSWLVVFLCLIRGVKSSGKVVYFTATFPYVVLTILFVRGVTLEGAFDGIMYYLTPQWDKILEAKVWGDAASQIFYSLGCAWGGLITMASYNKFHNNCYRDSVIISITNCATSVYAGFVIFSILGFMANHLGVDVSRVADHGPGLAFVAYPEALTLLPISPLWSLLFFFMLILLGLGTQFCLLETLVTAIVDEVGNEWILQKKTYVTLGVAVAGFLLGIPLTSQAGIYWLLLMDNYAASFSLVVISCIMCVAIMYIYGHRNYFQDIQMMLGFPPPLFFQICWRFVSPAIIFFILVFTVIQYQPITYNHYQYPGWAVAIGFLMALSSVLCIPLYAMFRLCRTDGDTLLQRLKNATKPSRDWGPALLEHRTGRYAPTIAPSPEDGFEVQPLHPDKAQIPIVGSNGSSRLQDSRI
Outline: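 IC50 comes from a four-parameter fit of nine-point, duplicate curves measuring inhibition of 5 μM [14C]glycine uptake, read by scintillation proximity after 3 h at 37 °C. Cells are human JAR, which express GlyT-1 endogenously, given 10 min compound pre-treatment in pH 7.4 buffer with 5 mM alanine and 0.75% DMSO.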

[4] = 0.5 h, dose 10 mg/kg, pretreatment 30 mins
[5] = 0.5 h, dose 30 mg/kg, pretreatment 30 mins
[6] = 2 h, dose 10 mg/kg, pretreatment 120 mins
[7] = 2 h, dose 30 mg/kg, pretreatment 120 mins
[8] = 6 h, dose 10 mg/kg, pretreatment 360 mins

Row | Compound | pIC50 [1] | pIC50 [3] | change in vivo at 10 mg/kg [2, 6] [%] | change in vivo at 30 mg/kg [2, 7] [%] | change in vivo at 3 mg/kg ([2]; 2 h, pretreatment 120 mins) [%] | further results
1 | Cn1cc(S(=O)(=O)N2CCN(C3(CNC(=O)c4ccc(C(F)(F)F)cc4C(F)(F)F)CCOCC3)CC2)nn1 (as salt: hydrochloride) [compound 276, N-((4-(4-(1-Methyl-1H-1,2,3-triazol-4-ylsulfonyl)piperazin-1-yl)tetrahydro-2H-pyran-4-yl)methyl)-2,4-bis(trifluoromethyl) benzamide Hydrochloride] | – | – | – | – | – | melting point: 145 °C
2 | CC(=O)CS(=O)(=O)N1CCN(C2(CNC(=O)c3ccc(C(F)(F)F)cc3Cl)CCC(F)(F)CC2)CC1 (as salt: hydrochloride) [compound 280, 2-Chloro-N-((4,4-difluoro-1-(4-(2-oxopropylsulfonyl)piper-azin-1-yl)cyclohexyl)methyl)-4-(trifluoromethyl) benzamide Hydrochloride] | – | – | – | – | – | melting point: 65 to 67 °C
3 | Cn1cnc(S(=O)(=O)N2CCN(C3(CNC(=O)c4c(F)cccc4F)CCC(F)(F)CC3)CC2)c1 [compound 163, N-((4,4-Difluoro-1-(4-(1-methyl-1H-imidazol-4-ylsulfonyl)piperazin-1-yl)cyclohexyl)methyl)-2,6-difluorobenzamide Hydrochloride] | 4.13 | 7.74 | 132 | 215 | – | change in vivo at 10 mg/kg [2, 4]: 123%; change in vivo at 30 mg/kg [2, 5]: 202%; change in vivo at 100 mg/kg ([2]; 0.5 h, pretreatment 30 mins): 280%; change in vivo at 100 mg/kg ([2]; 2 h, pretreatment 120 mins): 221%
4 | Cn1cc(S(=O)(=O)N2CCN(C3(CNC(=O)c4c(F)cccc4F)CCC(F)(F)CC3)CC2)nn1 [compound 189, N-((4,4-Difluoro-1-(4-(1-melhyl-1H-1,2,3-triazol-4-ylsulfonyl)piperazin-1-yl)cyclohexyl)methyl)-2,6-difluorobenzamide Hydrochloride] | < 4.12 | 8.30 | 203 | 270 | – | change in vivo at 10 mg/kg [2, 4]: 158%; change in vivo at 30 mg/kg [2, 5]: 219%; change in vivo at 100 mg/kg ([2]; 0.5 h, pretreatment 30 mins): 281%; change in vivo at 100 mg/kg ([2]; 2 h, pretreatment 120 mins): 288%
5 | Cn1cc(S(=O)(=O)N2CCN(C3(CNC(=O)c4ccc(F)cc4Cl)CCC(F)(F)CC3)CC2)nn1 [compound 192, 2-Chloro-N-((4,4-difluoro-1-(4-(1-methyl-1H-1,2,3-triazol-4-ylsulfonyl)piperazin-1-yl)cyclohexyl)methyl)-4-fluorobenzamide Hydrochloride] | < 4.12 | 9.00 | 311 | – | 199 | change in vivo at 3 mg/kg ([2]; 0.5 h, pretreatment 30 mins): 173%; change in vivo at 10 mg/kg [2, 4]: 195%
6 | CC(NC(=O)c1ccc(F)cc1Cl)C1(N2CCN(S(=O)(=O)c3cn(C)nn3)CC2)CCC(F)(F)CC1 (stereo not drawn) [compound 219, 2-Chloro-N-(1-(4,4-difluoro-1-(4-(1-methyl-1H-1,2,3-triazol-4-ylsulfonyl)piperazin-1-yl)cyclohexyl)ethyl)-4-fluorobenzamide Hydrochloride] | < 4.12 | 8.52 | 310 | – | 181 | –
7 | CC(NC(=O)c1ccc(C(F)(F)F)cc1Cl)C1(N2CCN(S(=O)(=O)c3cn(C)nn3)CC2)CCC(F)(F)CC1 (stereo not drawn) [compound 224, 2-Chloro-N-(1-(4,4-difluoro-1-(4-(1-methyl-1H-1,2,3-triazol-4-ylsulfonyl)piperazin-1-yl)cyclohexyl)ethyl)-4-(trifluoromethyl)benzamide Hydrochloride] | < 4.12 | 9.00 | 347 | – | 186 | –
8 | CC(NC(=O)c1ccc(C(F)(F)F)cc1C(F)(F)F)C1(N2CCN(S(=O)(=O)c3cn(C)nn3)CC2)CCC(F)(F)CC1 (stereo not drawn) [compound 226, N-(1-(4,4-Difluoro-1-(4-(1-methyl-1H-1,2,3-triazol-4-ylsulfonyl)piperazin-1-yl)cyclohexyl)ethyl)-2,4-bis(trifluoromethyl) benzamide Hydrochloride] | < 4.12 | 9.00 | 344 | – | 243 | change in vivo at 3 mg/kg ([2]; 6 h, pretreatment 360 mins): 227%; change in vivo at 10 mg/kg [2, 8]: 339%
9 | N-((4,4-Difluoro-1-(4- (propylsulfonyl)piperazin- 1-yl)cyclohexyl)methyl)- 2,4-bis(trifluoromethyl) benzamide Hydrochloride [compound 246] | < 4.12 | 8.15 | – | – | – | % CSF Glycine Increase versus Vehicle Control ([2]; dose 10 mg/kg, pretreatment 120 mins): 191%; % CSF Glycine Increase versus Vehicle Control ([2]; dose 10 mg/kg, pretreatment 360 mins): 166%; % CSF Glycine Increase versus Vehicle Control ([2]; dose 30 mg/kg, pretreatment 120 mins): 205%; % CSF Glycine Increase versus Vehicle Control ([2]; dose 30 mg/kg, pretreatment 360 mins): 244%

The next lines start with results.

Row | pIC50 [1] | pIC50 [3] | Compound | change in vivo at 10 mg/kg [2, 6] [%] | change in vivo at 30 mg/kg [2, 7] [%] | change in vivo at 3 mg/kg ([2]; 2 h, pretreatment 120 mins) [%] | further results
10 | < 4.12 | 9.00 | Cn1cc(S(=O)(=O)N2CCN(C3(CNC(=O)c4ccc(C(F)(F)F)cc4Cl)CCC(F)(F)CC3)CC2)nn1 [compound 193, 2-Chloro-N-((4,4-difluoro-1-(4-(1-methyl-1H-1,2,3-triazol-4-ylsulfonyl)piperazin-1-yl)cyclohexyl)methyl)-4-(trifluoromethyl)benzamide Hydrochloride] | 282 | 279 | – | change in vivo at 10 mg/kg [2, 8]: 303%; change in vivo at 30 mg/kg ([2]; 6 h, dose 30 mg/kg, pretreatment 360 mins): 355%
11 | < 4.12 | 9.00 | Cn1cc(S(=O)(=O)N2CCN(C3(CNC(=O)c4ccc(C(F)(F)F)cc4C(F)(F)F)CCC(F)(F)CC3)CC2)nn1 [compound 221, N-((4,4-Difluoro-1-(4-(1-methyl-1H-1,2,3-triazol-4-ylsulfonyl)piperazin-1-yl)cyclohexyl)methyl)-2,4-bis(trifluoromethyl) benzamide Hydrochloride] | 226 | – | – | change in vivo at 10 mg/kg [2, 8]: 241%
12 | < 4.12 | 7.48 | CC(O)CS(=O)(=O)N1CCN(C2(CNC(=O)c3ccc(C(F)(F)F)cc3Cl)CCC(F)(F)CC2)CC1 (stereo not drawn) [compound 252, 2-Chloro-N-((4,4-difluoro-1-(4-(2-hydroxypropylsulfonyl)piperazin-1-yl)cyclohexyl)methyl)-4-(trifluoromethyl)benzamide Hydrochloride] | – | 207 | – | –
